Assay results from PMC4135079 (Journal of pharmacological and toxicological methods, 2013).

Key:
[1] = human Thorough-QT study; ref Gintant, 2011; cited from earlier work
hERG [2] = conditions: read-out: hERG IC50; ref FDA pharmacology review (022068s000_PharmR_P1.pdf); cited from earlier work
hERG [3] = target: hERG (Homo sapiens, UniProt Q12809)
hERG, sequence (Q12809 whole entry): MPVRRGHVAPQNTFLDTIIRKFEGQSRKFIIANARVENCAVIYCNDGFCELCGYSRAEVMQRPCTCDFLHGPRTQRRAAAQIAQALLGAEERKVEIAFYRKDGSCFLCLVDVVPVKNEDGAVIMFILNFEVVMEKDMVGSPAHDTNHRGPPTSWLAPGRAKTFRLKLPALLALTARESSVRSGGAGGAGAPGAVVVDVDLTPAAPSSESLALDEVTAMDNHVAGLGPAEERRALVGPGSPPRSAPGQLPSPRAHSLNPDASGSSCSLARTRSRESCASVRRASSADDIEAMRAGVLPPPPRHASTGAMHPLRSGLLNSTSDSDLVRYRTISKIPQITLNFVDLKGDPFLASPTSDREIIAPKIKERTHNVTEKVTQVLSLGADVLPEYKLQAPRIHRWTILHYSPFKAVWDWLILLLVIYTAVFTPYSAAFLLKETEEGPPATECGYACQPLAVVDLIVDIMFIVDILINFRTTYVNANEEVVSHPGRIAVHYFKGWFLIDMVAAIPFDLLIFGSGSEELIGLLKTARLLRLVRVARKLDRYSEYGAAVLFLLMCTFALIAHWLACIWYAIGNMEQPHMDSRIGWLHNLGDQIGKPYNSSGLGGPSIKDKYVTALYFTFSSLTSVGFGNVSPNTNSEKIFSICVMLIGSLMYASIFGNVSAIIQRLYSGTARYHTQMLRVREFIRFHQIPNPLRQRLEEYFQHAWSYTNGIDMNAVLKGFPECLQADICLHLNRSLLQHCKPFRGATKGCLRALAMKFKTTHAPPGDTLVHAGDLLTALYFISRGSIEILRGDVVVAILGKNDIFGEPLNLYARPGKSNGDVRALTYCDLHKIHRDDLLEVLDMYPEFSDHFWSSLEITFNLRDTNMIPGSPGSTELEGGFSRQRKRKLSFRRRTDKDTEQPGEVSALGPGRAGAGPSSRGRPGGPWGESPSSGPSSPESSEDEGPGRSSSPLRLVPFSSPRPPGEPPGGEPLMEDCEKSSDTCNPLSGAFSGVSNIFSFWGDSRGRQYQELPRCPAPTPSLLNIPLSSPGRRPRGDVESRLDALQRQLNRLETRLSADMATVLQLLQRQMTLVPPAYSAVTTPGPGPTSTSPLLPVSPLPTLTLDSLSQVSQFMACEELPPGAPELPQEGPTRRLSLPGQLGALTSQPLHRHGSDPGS

| Compound | QTc prolongation observed in the TQT study [1] | IC50 (hERG [2]) | Hill Log-logistic α (hERG [3]) |
| --- | --- | --- | --- |
| Cc1cn(-c2cc(NC(=O)c3ccc(C)c(Nc4nccc(-c5cccnc5)n4)c3)cc(C(F)(F)F)c2)cn1 [Nilotinib] | 15.8 ms | […] | – |
| O=c1[nH]c2ccccc2n1C1CCN(CCCC(c2ccc(F)cc2)c2ccc(F)cc2)CC1 [Pimozide] | – | – | 1.586 |
| O=C(CCCN1CCC(O)(c2ccc(Cl)cc2)CC1)c1ccc(F)cc1 [Haloperidol] | – | – | 1.469 |
| COc1cc2nc(N(C)CCCNC(=O)C3CCCO3)nc(N)c2cc1OC (centres unmarked) [Alfuzosin] | 7.7 ms | – | – |
